Source: patent US4164448A, “Activation of cholesterol oxidase for cholesterol assay” (Boehringer Mannheim GmbH, priority 1973, dated 1979)
Like-named read-outs stand apart in the source and are kept apart here.

Experiments:
cholesterol oxidase [1] = experiment: Determination of cholesterol in serum with detergent-free cholesterol oxidase, extinction at 240 nm; assay type: biochemical; conditions: 0.4% in 0.5 M potassium phosphate buffer pH 7.5, 0.1 U enzyme; without surface-active agent 15 minutes were required
Method: 0.05 ml. of serum were added to 10 ml. 0.5 M potassium phosphate buffer of pH 7.5 which contained 0.4% hydroxypolyethoxydodecane. The extinction (E1) was read off at 240 nm in a suitable spectrophotometer and the reaction started with 0.02 ml. (0.1 U) of storage-stable cholesterol oxidase, freed from traces of detergent, in 1 M aqueous ammonium sulfate solution. After 3 minutes, the extinction (E2) was read off. The concentration of the cholestenone formed and thus of the cholesterol was given by the difference between the first and second readings, having regard to the molar extinction coefficients for […] at 240 nm. The measurement of a typical sample gave 62 mg.% free cholesterol and 167 mg.% total cholesterol (after saponification).
A comparative determination but without the addition of the surface-active agent required a reaction time of 15 minutes.

cholesterol oxidase [2] = experiment: Activation of cholesterol oxidase by surface-active compounds; assay type: biochemical; conditions: for appropriate concentration range of surface-active compound for activation: too small an amount gives no activation, too large denatures the enzyme; for activation of cholesterol oxidase: result in words
Excerpt: In addition, other surface-active substances with lipophilic and hydrophilic properties which contain at least one hydroxyl group, can also be used. Examples of such compounds include ethanol, butyl-diglycol and hexyleneglycol.
The appropriate concentration range, as well as the optimum concentration, can be experimentally determined for all appropriate surface-active agents.

cholesterol oxidase [3] = conditions: 1 M ammonium sulfate, 33° C.
Method: The experiments were carried out with an octyl-phenol-ethylene oxide adduct.

| Compound | appropriate concentration range of surface-active compound for activation (cholesterol oxidase [2]) | activation of cholesterol oxidase (cholesterol oxidase [2]) | also measured |
| --- | --- | --- | --- |
| hydroxypolyethoxydodecane | 0.15 to 0.6 wt.% | – | reaction time of the cholesterol determination (cholesterol oxidase [1]): 3 min |
| polyoxyethylene derivatives of sorbitol anhydrides | 0.15 to 0.6 wt.% | – | – |
| desoxycholates | – | Similarly good results | – |
| CO [methanol] | – | no activation | – |
| OC1CCCCC1 [cyclohexanol] | – | no activation | – |
| C[C@H](CCC(=O)O)[C@H]1CC[C@H]2[C@@H]3CC[C@@H]4C[C@H](O)CC[C@]4(C)[C@H]3C[C@H](O)[C@]12C [sodium desoxycholate] | 0.03 to 0.05 wt.% | – | – |
| octyl-phenol-ethylene oxide adduct | 0.03 to 0.1 wt.% | – | Activity of cholesterol oxidase in %, referred to freshly prepared enzyme (cholesterol oxidase [3]; detergent 0.02%, storage period 10 days): 60%; Activity of cholesterol oxidase in %, referred to freshly prepared enzyme (cholesterol oxidase [3]; detergent 0.02%, storage period 22 days): 40%; Activity of cholesterol oxidase in %, referred to freshly prepared enzyme (cholesterol oxidase [3]; detergent 0.05%, storage period 10 days): 7%; Activity of cholesterol oxidase in %, referred to freshly prepared enzyme (cholesterol oxidase [3]; detergent 0.05%, storage period 22 days): 1%; Activity of cholesterol oxidase in %, referred to freshly prepared enzyme (cholesterol oxidase [3]; detergent 0.6%, storage period 10 days): 3%; Activity of cholesterol oxidase in %, referred to freshly prepared enzyme (cholesterol oxidase [3]; detergent 0.6%, storage period 22 days): 1%; Activity of cholesterol oxidase in %, referred to freshly prepared enzyme (cholesterol oxidase [3]; detergent amount not printed (column between 0.05% and 0.6%), storage period 10 days): 7%; Activity of cholesterol oxidase in %, referred to freshly prepared enzyme (cholesterol oxidase [3]; detergent amount not printed (column between 0.05% and 0.6%), storage period 22 days): 1% |
| OCC(O)CO [glycerol] | – | no activation | – |
| OCCO [ethylene glycol] | – | no activation | – |
